Test results taken from ChEMBL document CHEMBL1149848, “Prenylated flavonoid derivatives from the bark of Erythrina addisoniae” (J Nat Prod, 2008).
The source made the active and inactive calls. No cut-off for these calls is given here.

Tests used:
Format in all cases: functional, cell-based
[1] = Cytotoxicity against rat H4IIE cells after 24 hrs by MTT assay
H4IIE [2] = experiment: Cytotoxicity against rat H4IIE cells assessed as caspase-3/7 activation after 24 hrs by Apo-ONE assay
H4IIE [3] = experiment: Cytotoxicity against rat H4IIE cells assessed as nuclear fragmentation after 24 hrs by Hoechst staining

SMILES | IC50 [1] [µM] | Activity (H4IIE [2]) | Activity (H4IIE [3])
COc1c(CC=C(C)C)cc([C@@H]2CC(=O)c3c(O)cc(O)cc3O2)cc1CC=C(C)C | 5 |  | 
C=C(C)C(O)Cc1cc([C@@H]2CC(=O)c3c(O)cc(O)cc3O2)cc(CC=C(C)C)c1O (some centres not stated) [ABYSSINOFLAVANONE VII] | 3.5 | Active | Active
CC(C)=CCc1cc([C@@H]2CC(=O)c3ccc(O)cc3O2)cc(CC=C(C)C)c1O [ABYSSINONE IV] | 15 |  | 
O=C1C[C@@H](c2ccc(O)cc2)Oc2cc(O)ccc21 [LIQUIRTIGENIN] | > 100 |  | 
O=C1C[C@@H](c2ccc(O)cc2)Oc2cc(O)cc(O)c21 [NARINGENIN] | > 100 |  | 
